# Results taken from patent US4647586A, “Pharmaceutical oil-in-water type micro-emulsion” (priority 1984, dated 1987).
# Like-named read-outs stand apart in the source and are kept apart here.
# How the values were obtained:
# [1] = tested on: Carrageenin-induced paw edema; experiment: Carrageenin-induced paw edema in rats [Test 2]; assay type: in vivo, SD-strain male rats; details: for ED30: Rattus norvegicus, iv, read-out: ED30 (dose required to cause a 30% inhibition of edema volume)
# Experimental: (a) Experimental animals: SD-strain male rats (120-180 g).
# A micro-emulsion containing ethyl 4-biphenylylacetate prepared as in Examples 11, 12, 13 and 14 given hereinafter was administered at a dose of 5 ml per kg of the animals. Venolipid® (Morishita Pharmaceutical Co., Ltd.) was used as a vehicle control. As control drugs, a solution or suspension of ethyl 4-biphenylylacetate in physiological saline containing 0.5% Cremophor EL® (Sigma Chemical Company, a solubilizing agent), 0.2% of polyethylene glycol 400 and 10% of dimethyl sulfoxide, a physiological saline solution of sodium 4-biphenylylacetate and a physiological saline solution of Aspirin DL-lysine [Venopirin®, Green Cross Co.] were used. As the vehicle control of the control drugs, the above solvents were used.
# A 1% carrageenin solution in physiological saline was injected subcutaneously in an amount of 0.05 ml into the planter surface of the left hind paw of each rat via a 25 gauge needle fitted to a 0.25 ml syringe. One hour after carrageenin injection, the rats were randomized on the basis of the edema volume, and intravenous administration of the drugs and vehicles followed immediately. The volume of the left hind paw was measured by a plethysmometer (Ugo Basile) prior to the injection of the carrageenin solution and at 2, 3, 4, 5 and 6 hours after the carrageenin injection. As the volume of edema, an increase in the paw volume was taken.
# The inhibition percents were calculated in accordance with the same calculation formula as in Test 1.
# [2] = tested on: Adjuvant-induced polyarthritis; experiment: Adjuvant-induced polyarthritis in rats, adjuvant-injected paw [Test 2]; assay type: in vivo, SD-strain female rats; details: for ED20: Rattus norvegicus, iv, read-out: ED20 (dose required to cause a 20% inhibition of adjuvant-injected paw volume)
# Experimental: (a) Experimental animals: SD-strain famale rats 140-180g).
# (§1) (b) Test drugs: The same as in A-1 [Test 2].
# Rats were anesthetized with ether inhalation, and 0.6 mg of Mycobacterium butyricum suspended in 0.1 ml of white paraffin oil was immediately injected intradermally into the planter surface of the left hind paw of each rat via a 27 gauge needle fitted to a 0.5 ml syringe (day 0). On the 14th day after the adjuvant injection, arthritis-established rats selected by development of secondary lesions were used. Volumes of both hind paws in arthritis-established rats were measured by a plethysmometer (UGO BASILE), and the rats were randomized on the basis of the edema volume in the adjuvant-injected paw. Once daily, beginning on the 14th day up to the 18th day, drugs and vehicles were administered intravenously. Measurements of both paw volumes were performed every day from the 15th day up to the 18th day, and on the 21st day and the 24th day. The inhibition percent were calculated in accordance with the calculation formula as in [Test 1] of A-1.
# [3] = tested on: abnormal 3-legged gait (brewers yeast-inflamed paw); experiment: Reversal of abnormal 3-legged gait in rats (analgesic activity); assay type: in vivo, SD-strain male rats; details: Rattus norvegicus, iv, read-out: ED50 (dose causing at least 50% reversal of gait score in 50% of the rats)
# Experimental: (a) Experimental animals: SD-strain male rats (120-165 g).
# as §1
# A 40% suspension of dried brewers yeast in physiological saline was injected (0.25 ml/rat) subcutaneously into the planter surface of the left hind paw of each rat. Three hours later, the walking gait on a wire mesh platform was assessed for each rat.
# 0 = Normal gait in the presence of a severely
# 0.5 = As above, with intermittent mild limping.
# 1.0 = Constant limping, but continuous use of
# 1.5 = Limping with occasional 3-legged gait
# 2.0 = Continous 3-Legged gait and/or only the
# Any rat not showing a gait score of 2 was eliminated from this test. Drugs and vehicles were then administered intravenously. Measurements of the gait were made at 1, 2, 3 and 4 hours after drug administration.
# [4] = tested on: brewer's yeast-induced fever; experiment: Effects on body temperature in pyretic rats (antipyretic activity); assay type: in vivo, SD-strain male rats; details: iv, read-out: ED50 (dose reducing body temperature by at least 1.5° C. in 50% of the rats)
# Experimental: (a) Experimental animals SD-strain male rats (120-185 g).
# as §1
# Male Sprague-Dawley rats, weighing 120-185 g, were injected subcutaneously in the nape of the neck with 2 ml of a 20% suspension of dried brewers yeast in physiological saline. Drugs and vehicles were administered intravenously 17 hours after treatment of yeast suspension. Rectal temperature was recorded with a thermistor type thermometer (Natsume Seisakusho, BMA-77 Type) just prior to drug administration and at 1/2, 1, 2 and 4 hours after drug administration.
# [5] = tested on: synthesis of prostaglandin; details: E. L. Tolman, American Cyanamid Company's report; cited from earlier work
# [6] = rat, in vivo
# [7] = in vivo, po; cited from earlier work
structure (smiles),measurement,setting,value
CC(=O)Oc1ccccc1C(=O)O (racemic) [Aspirin-DL.Lysine],Inhibition (%),"[1]; 50 mg/kg i.v. as aspirin, 2 h after carrageenin",24.2%
same,Inhibition (%),"[1]; 50 mg/kg i.v. as aspirin, 3 h after carrageenin",26.7%
same,Inhibition (%),"[1]; 50 mg/kg i.v. as aspirin, 4 h after carrageenin",35.7%
same,Inhibition (%),"[1]; 50 mg/kg i.v. as aspirin, 5 h after carrageenin",29.6%
same,Inhibition (%),"[1]; 50 mg/kg i.v. as aspirin, 6 h after carrageenin",30.0%
same,Inhibition (%),"[1]; 100 mg/kg i.v. as aspirin, 2 h after carrageenin",24.2%
same,Inhibition (%),"[1]; 100 mg/kg i.v. as aspirin, 3 h after carrageenin",26.7%
same,Inhibition (%),"[1]; 100 mg/kg i.v. as aspirin, 4 h after carrageenin",26.8%
same,Inhibition (%),"[1]; 100 mg/kg i.v. as aspirin, 5 h after carrageenin",22.2%
same,Inhibition (%),"[1]; 100 mg/kg i.v. as aspirin, 6 h after carrageenin",20.0%
same,Inhibition (%),"[1]; 200 mg/kg i.v. as aspirin, 2 h after carrageenin",37.9%
same,Inhibition (%),"[1]; 200 mg/kg i.v. as aspirin, 3 h after carrageenin",43.3%
same,Inhibition (%),"[1]; 200 mg/kg i.v. as aspirin, 4 h after carrageenin",50.0%
same,Inhibition (%),"[1]; 200 mg/kg i.v. as aspirin, 5 h after carrageenin",42.6%
same,Inhibition (%),"[1]; 200 mg/kg i.v. as aspirin, 6 h after carrageenin",44.0%
same,ED30,[1],81.6 mg/kg
same,Inhibition (%),"[2]; 50 mg/kg/day i.v. as aspirin, day 15",-2.7%
same,Inhibition (%),"[2]; 50 mg/kg/day i.v. as aspirin, day 16",-5.2%
same,Inhibition (%),"[2]; 50 mg/kg/day i.v. as aspirin, day 17",-3.8%
same,Inhibition (%),"[2]; 50 mg/kg/day i.v. as aspirin, day 18",-2.6%
same,Inhibition (%),"[2]; 50 mg/kg/day i.v. as aspirin, day 21",-12.4%
same,Inhibition (%),"[2]; 50 mg/kg/day i.v. as aspirin, day 24",-20.0%
same,Inhibition (%),"[2]; 100 mg/kg/day i.v. as aspirin, day 15",4.0%
same,Inhibition (%),"[2]; 100 mg/kg/day i.v. as aspirin, day 16",9.2%
same,Inhibition (%),"[2]; 100 mg/kg/day i.v. as aspirin, day 17",13.2%
same,Inhibition (%),"[2]; 100 mg/kg/day i.v. as aspirin, day 18",6.8%
same,Inhibition (%),"[2]; 100 mg/kg/day i.v. as aspirin, day 21",4.2%
same,Inhibition (%),"[2]; 100 mg/kg/day i.v. as aspirin, day 24",-2.8%
same,Inhibition (%),"[2]; 200 mg/kg/day i.v. as aspirin, day 15",6.7%
same,Inhibition (%),"[2]; 200 mg/kg/day i.v. as aspirin, day 16",11.3%
same,Inhibition (%),"[2]; 200 mg/kg/day i.v. as aspirin, day 17",16.4%
same,Inhibition (%),"[2]; 200 mg/kg/day i.v. as aspirin, day 18",15.3%
same,Inhibition (%),"[2]; 200 mg/kg/day i.v. as aspirin, day 21",7.2%
same,Inhibition (%),"[2]; 200 mg/kg/day i.v. as aspirin, day 24",6.2%
same,ED20,[2],320 mg/kg
same,ED50,[3],93.2 mg/kg
same,ED50,[4]; 17 h,76.3 mg/kg
"O=C(O)Cc1ccc(-c2ccccc2)cc1 [4-biphenylylacetic acid, 4-Biphenylylacetic acid]","IC50, inhibition of synthesis of prostaglandin",[5],0.68 ng/mL
CCOC(=O)Cc1ccc(-c2ccccc2)cc1 [Ethyl 4-biphenylylacetate],Inhibition (%),"[1]; 1.25 mg/kg i.v. as 4-biphenylylacetic acid, 2 h after carrageenin",14.0%
same,Inhibition (%),"[1]; 1.25 mg/kg i.v. as 4-biphenylylacetic acid, 3 h after carrageenin",17.5%
same,Inhibition (%),"[1]; 1.25 mg/kg i.v. as 4-biphenylylacetic acid, 4 h after carrageenin",9.6%
same,Inhibition (%),"[1]; 1.25 mg/kg i.v. as 4-biphenylylacetic acid, 5 h after carrageenin",9.8%
same,Inhibition (%),"[1]; 1.25 mg/kg i.v. as 4-biphenylylacetic acid, 6 h after carrageenin",6.4%
same,Inhibition (%),"[1]; 2.5 mg/kg i.v. as 4-biphenylylacetic acid, 2 h after carrageenin",19.3%
same,Inhibition (%),"[1]; 2.5 mg/kg i.v. as 4-biphenylylacetic acid, 3 h after carrageenin",26.3%
same,Inhibition (%),"[1]; 2.5 mg/kg i.v. as 4-biphenylylacetic acid, 4 h after carrageenin",17.3%
same,Inhibition (%),"[1]; 2.5 mg/kg i.v. as 4-biphenylylacetic acid, 5 h after carrageenin",17.6%
same,Inhibition (%),"[1]; 2.5 mg/kg i.v. as 4-biphenylylacetic acid, 6 h after carrageenin",12.8%
same,Inhibition (%),"[1]; 5.0 mg/kg i.v. as 4-biphenylylacetic acid, 2 h after carrageenin",17.5%
same,Inhibition (%),"[1]; 5.0 mg/kg i.v. as 4-biphenylylacetic acid, 3 h after carrageenin",28.1%
same,Inhibition (%),"[1]; 5.0 mg/kg i.v. as 4-biphenylylacetic acid, 4 h after carrageenin",23.1%
same,Inhibition (%),"[1]; 5.0 mg/kg i.v. as 4-biphenylylacetic acid, 5 h after carrageenin",23.5%
same,Inhibition (%),"[1]; 5.0 mg/kg i.v. as 4-biphenylylacetic acid, 6 h after carrageenin",19.1%
same,Inhibition (%),"[1]; 10.0 mg/kg i.v. as 4-biphenylylacetic acid, 2 h after carrageenin",22.8%
same,Inhibition (%),"[1]; 10.0 mg/kg i.v. as 4-biphenylylacetic acid, 3 h after carrageenin",22.8%
same,Inhibition (%),"[1]; 10.0 mg/kg i.v. as 4-biphenylylacetic acid, 4 h after carrageenin",26.9%
same,Inhibition (%),"[1]; 10.0 mg/kg i.v. as 4-biphenylylacetic acid, 5 h after carrageenin",25.5%
same,Inhibition (%),"[1]; 10.0 mg/kg i.v. as 4-biphenylylacetic acid, 6 h after carrageenin",27.7%
same,ED30,[1],15.8 mg/kg
same,Inhibition (%),"[2]; 1.25 mg/kg/day i.v. as 4-biphenylylacetic acid, day 15",-8.0%
same,Inhibition (%),"[2]; 1.25 mg/kg/day i.v. as 4-biphenylylacetic acid, day 16",-5.1%
same,Inhibition (%),"[2]; 1.25 mg/kg/day i.v. as 4-biphenylylacetic acid, day 17",-3.3%
same,Inhibition (%),"[2]; 1.25 mg/kg/day i.v. as 4-biphenylylacetic acid, day 18",-4.6%
same,Inhibition (%),"[2]; 1.25 mg/kg/day i.v. as 4-biphenylylacetic acid, day 21",-19.2%
same,Inhibition (%),"[2]; 1.25 mg/kg/day i.v. as 4-biphenylylacetic acid, day 24",-23.2%
same,Inhibition (%),"[2]; 2.5 mg/kg/day i.v. as 4-biphenylylacetic acid, day 15",-3.7%
same,Inhibition (%),"[2]; 2.5 mg/kg/day i.v. as 4-biphenylylacetic acid, day 16",0%
same,Inhibition (%),"[2]; 2.5 mg/kg/day i.v. as 4-biphenylylacetic acid, day 17",6.7%
same,Inhibition (%),"[2]; 2.5 mg/kg/day i.v. as 4-biphenylylacetic acid, day 18",5.8%
same,Inhibition (%),"[2]; 2.5 mg/kg/day i.v. as 4-biphenylylacetic acid, day 21",-6.5%
same,Inhibition (%),"[2]; 2.5 mg/kg/day i.v. as 4-biphenylylacetic acid, day 24",-17.5%
same,Inhibition (%),"[2]; 5.0 mg/kg/day i.v. as 4-biphenylylacetic acid, day 15",5.6%
same,Inhibition (%),"[2]; 5.0 mg/kg/day i.v. as 4-biphenylylacetic acid, day 16",7.2%
same,Inhibition (%),"[2]; 5.0 mg/kg/day i.v. as 4-biphenylylacetic acid, day 17",15.5%
same,Inhibition (%),"[2]; 5.0 mg/kg/day i.v. as 4-biphenylylacetic acid, day 18",15.0%
same,Inhibition (%),"[2]; 5.0 mg/kg/day i.v. as 4-biphenylylacetic acid, day 21",8.9%
same,Inhibition (%),"[2]; 5.0 mg/kg/day i.v. as 4-biphenylylacetic acid, day 24",1.3%
same,Inhibition (%),"[2]; 10.0 mg/kg/day i.v. as 4-biphenylylacetic acid, day 15",2.8%
same,Inhibition (%),"[2]; 10.0 mg/kg/day i.v. as 4-biphenylylacetic acid, day 16",10.7%
same,Inhibition (%),"[2]; 10.0 mg/kg/day i.v. as 4-biphenylylacetic acid, day 17",15.2%
same,Inhibition (%),"[2]; 10.0 mg/kg/day i.v. as 4-biphenylylacetic acid, day 18",15.6%
same,Inhibition (%),"[2]; 10.0 mg/kg/day i.v. as 4-biphenylylacetic acid, day 21",3.0%
same,Inhibition (%),"[2]; 10.0 mg/kg/day i.v. as 4-biphenylylacetic acid, day 24",-9.8%
same,ED20,[2],14.5 mg/kg
same,ED50,"[4]; 17 hours after yeast, against vehicle control",3.1 mg/kg
same,Transferability to the tissues,[6],showed the same transferability to the tissues
"O=C(O)CCC(=O)c1ccc(-c2ccccc2)cc1 [Fenbufen, 4-(4-biphenyl)-4-oxobutyric acid]",Side effects on the digestive organs,[7],considerably reduced as compared with conventional non-steroidal anti-inflammatory agents
